In ChEMBL document CHEMBL4052645, “Discovery of potent and efficacious pyrrolopyridazines as dual JAK1/3 inhibitors” (Bioorg Med Chem Lett, 2017):

Key:
[1] = biological target: Tyrosine-protein kinase JAK2 (Homo sapiens, UniProt O60674); assay: Inhibition of GST-tagged JAK2 (unknown origin) after 3 hrs by Caliper assay
[2] = biological target: Serine/threonine-protein kinase 4 (Homo sapiens) (UniProt Q13043); assay: Inhibition of wild-type human full length MST1 (M1 to F487 residues) expressed in bacterial expression system assessed as residual activity at 50 nM by Kinomescan method relative to control
[3] = biological target: Platelet-derived growth factor receptor beta (Homo sapiens) (UniProt P09619); assay: Inhibition of wild-type human partial length PDGFRB (V582 to Y1009 residues) expressed in bacterial expression system assessed as residual activity at 50 nM by Kinomescan method relative to control
[4] = biological target: Casein kinase II subunit alpha (Homo sapiens) (UniProt P68400); assay: Inhibition of wild-type human full length CK2A1 (M1 to Q391 residues) expressed in mammalian expression system assessed as residual activity at 50 nM by Kinomescan method relative to control
[5] = biological target: Death-associated protein kinase 1 (Homo sapiens) (UniProt P53355); assay: Inhibition of wild-type human partial length DAPK1 (M1 to F296 residues) expressed in bacterial expression system assessed as residual activity at 50 nM by Kinomescan method relative to control
[6] = tested on: Phosphatidylinositol 4,5-bisphosphate 3-kinase catalytic subunit alpha isoform (Homo sapiens), P42336 [M1043I]; assay: Inhibition of human partial length PIK3CA M1043I mutant (R108 to N1068 residues) expressed in mammalian expression system assessed as residual activity at 50 nM by Kinomescan method relative to control
[7] = biological target: Serine/threonine-protein kinase VRK2 (Homo sapiens) (UniProt Q86Y07); assay: Inhibition of wild-type human partial length VRK2 (M1 to T336 residues) expressed in mammalian expression system assessed as residual activity at 50 nM by Kinomescan method relative to control
[8] = species: Homo sapiens; assay: Inhibition of human partial length FLT3 ITD mutant expressed in bacterial expression system assessed as residual activity at 50 nM by Kinomescan method relative to control
[9] = biological target: BDNF/NT-3 growth factors receptor (Homo sapiens) (UniProt Q16620); assay: Inhibition of wild-type human partial length TRKB (Q547 to G838 residues) expressed in mammalian expression system assessed as residual activity at 50 nM by Kinomescan method relative to control
[10] = biological target: Serine/threonine-protein kinase B-raf (Homo sapiens) (UniProt P15056); assay: Inhibition of wild-type human partial length BRAF (S429 to E741 residues) expressed in mammalian expression system assessed as residual activity at 50 nM by Kinomescan method relative to control
[11] = biological target: Casein kinase I isoform gamma-1 (Homo sapiens) (UniProt Q9HCP0); assay: Inhibition of wild-type human partial length CK1G1 (T15 to S353 residues) expressed in bacterial expression system assessed as residual activity at 50 nM by Kinomescan method relative to control
[12] = biological target: Cyclin-dependent kinase 5 (Homo sapiens) (UniProt Q00535); assay: Inhibition of wild-type human full length CDK5 (M1 to P292 residues) expressed in bacterial expression system assessed as residual activity at 50 nM by Kinomescan method relative to control
[13] = biological target: Cyclin-dependent kinase 17 (Homo sapiens) (UniProt Q00537); assay: Inhibition of recombinant human full length PCTAIRE2 (M1 to F523 residues) assessed as residual activity at 50 nM by Kinomescan method relative to control
[14] = biological target: Cyclin-dependent kinase-like 1 (Homo sapiens) (UniProt Q00532); assay: Inhibition of wild-type human full length CDKL1 (M1 to I358 residues) expressed in mammalian expression system assessed as residual activity at 50 nM by Kinomescan method relative to control
[15] = biological target: Peripheral plasma membrane protein CASK (Homo sapiens) (UniProt O14936); assay: Inhibition of wild-type human partial length CASK (M1 to H315 residues) expressed in mammalian expression system assessed as residual activity at 50 nM by Kinomescan method relative to control
[16] = biological target: Ribosomal protein S6 kinase alpha-4 (Homo sapiens) (UniProt O75676); assay: Inhibition of wild-type human partial length C-terminal MSK2 kinase domain 2 (M375 to T705 residues) expressed in mammalian expression system assessed as residual activity at 50 nM by Kinomescan method relative to control
[17] = biological target: Ephrin type-A receptor 7 (Homo sapiens) (UniProt Q15375); assay: Inhibition of wild-type human partial length EPHA7 (Y608 to S912 residues) expressed in bacterial expression system assessed as residual activity at 50 nM by Kinomescan method relative to control
[18] = biological target: Insulin receptor-related protein (Homo sapiens) (UniProt P14616); assay: Inhibition of wild-type human partial length IRR (R950 to E1278 residues) expressed in bacterial expression system assessed as residual activity at 50 nM by Kinomescan method relative to control
[19] = biological target: Serine/threonine-protein kinase MAK (Homo sapiens) (UniProt P20794); assay: Inhibition of wild-type human partial length MAK (M1 to P314 residues) expressed in bacterial expression system assessed as residual activity at 50 nM by Kinomescan method relative to control
[20] = biological target: Dual specificity mitogen-activated protein kinase kinase 4 (Homo sapiens) (UniProt P45985); assay: Inhibition of wild-type human partial length MAP2K4 (S84 to D399 residues) expressed in mammalian expression system assessed as residual activity at 50 nM by Kinomescan method relative to control
[21] = biological target: Serine/threonine-protein kinase Nek7 (Homo sapiens) (UniProt Q8TDX7); assay: Inhibition of wild-type human full length NEK7 (M1 to S302 residues) expressed in bacterial expression system assessed as residual activity at 50 nM by Kinomescan method relative to control
[22] = tested on: Phosphatidylinositol 4,5-bisphosphate 3-kinase catalytic subunit alpha isoform (Homo sapiens), P42336 [I800L]; assay: Inhibition of human partial length PI3KCA I800L mutant (R108 to N1068 residues) expressed in mammalian expression system assessed as residual activity at 50 nM by Kinomescan method relative to control
[23] = biological target: Phosphatidylinositol 4,5-bisphosphate 3-kinase catalytic subunit gamma isoform (Homo sapiens) (UniProt P48736); assay: Inhibition of wild-type human partial length PI3KCG (S144 to A1102 residues) expressed in mammalian expression system assessed as residual activity at 50 nM by Kinomescan method relative to control
[24] = biological target: Testis-specific serine/threonine-protein kinase 1 (Homo sapiens) (UniProt Q9BXA7); assay: Inhibition of wild-type human full length TSSK1B (M1 to Q367 residues) expressed in bacterial expression system assessed as residual activity at 50 nM by Kinomescan method relative to control
[25] = biological target: Misshapen-like kinase 1 (Homo sapiens) (UniProt Q8N4C8); assay: Inhibition of wild-type human partial length MINK (M1 to K312 residues) expressed in mammalian expression system assessed as residual activity at 50 nM by Kinomescan method relative to control
Sequence of Misshapen-like kinase 1 (Homo sapiens) (Q8N4C8 whole entry, looked up, the tested form may be a part): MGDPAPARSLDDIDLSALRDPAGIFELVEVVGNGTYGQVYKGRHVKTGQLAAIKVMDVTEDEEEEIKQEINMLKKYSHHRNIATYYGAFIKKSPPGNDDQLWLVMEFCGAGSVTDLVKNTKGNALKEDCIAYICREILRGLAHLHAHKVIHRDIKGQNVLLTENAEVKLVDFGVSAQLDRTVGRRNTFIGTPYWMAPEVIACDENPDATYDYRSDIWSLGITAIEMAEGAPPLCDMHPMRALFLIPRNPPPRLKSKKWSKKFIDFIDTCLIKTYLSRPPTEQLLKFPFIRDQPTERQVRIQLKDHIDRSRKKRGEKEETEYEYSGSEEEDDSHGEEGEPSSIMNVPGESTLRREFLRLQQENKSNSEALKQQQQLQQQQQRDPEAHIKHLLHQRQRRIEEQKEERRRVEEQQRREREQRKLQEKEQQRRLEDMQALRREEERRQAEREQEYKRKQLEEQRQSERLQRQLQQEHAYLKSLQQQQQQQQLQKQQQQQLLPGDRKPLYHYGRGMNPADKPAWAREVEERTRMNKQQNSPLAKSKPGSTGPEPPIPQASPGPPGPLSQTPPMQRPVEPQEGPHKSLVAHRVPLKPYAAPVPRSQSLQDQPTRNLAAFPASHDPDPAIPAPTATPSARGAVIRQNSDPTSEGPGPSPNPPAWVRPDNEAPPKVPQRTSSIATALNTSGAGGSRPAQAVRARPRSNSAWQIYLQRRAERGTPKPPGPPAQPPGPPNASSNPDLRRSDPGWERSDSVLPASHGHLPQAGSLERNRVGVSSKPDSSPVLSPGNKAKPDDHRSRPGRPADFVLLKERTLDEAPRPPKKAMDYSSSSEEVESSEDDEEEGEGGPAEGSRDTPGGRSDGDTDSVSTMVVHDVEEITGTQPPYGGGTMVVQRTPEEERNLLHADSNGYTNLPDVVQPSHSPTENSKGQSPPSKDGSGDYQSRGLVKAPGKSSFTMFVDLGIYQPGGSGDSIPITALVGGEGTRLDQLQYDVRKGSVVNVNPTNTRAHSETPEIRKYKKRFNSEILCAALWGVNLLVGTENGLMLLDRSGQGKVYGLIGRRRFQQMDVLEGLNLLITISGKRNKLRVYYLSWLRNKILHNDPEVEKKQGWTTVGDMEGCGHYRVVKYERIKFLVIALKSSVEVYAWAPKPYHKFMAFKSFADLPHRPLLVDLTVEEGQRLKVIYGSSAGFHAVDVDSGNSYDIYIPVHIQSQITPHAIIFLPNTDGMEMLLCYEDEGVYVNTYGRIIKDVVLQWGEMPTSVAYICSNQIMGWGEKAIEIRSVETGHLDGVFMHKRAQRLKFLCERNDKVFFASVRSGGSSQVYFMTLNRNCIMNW

Sequence of Phosphatidylinositol 4,5-bisphosphate 3-kinase catalytic subunit gamma isoform (Homo sapiens) (P48736 whole entry, looked up, the tested form may be a part, canonical isoform): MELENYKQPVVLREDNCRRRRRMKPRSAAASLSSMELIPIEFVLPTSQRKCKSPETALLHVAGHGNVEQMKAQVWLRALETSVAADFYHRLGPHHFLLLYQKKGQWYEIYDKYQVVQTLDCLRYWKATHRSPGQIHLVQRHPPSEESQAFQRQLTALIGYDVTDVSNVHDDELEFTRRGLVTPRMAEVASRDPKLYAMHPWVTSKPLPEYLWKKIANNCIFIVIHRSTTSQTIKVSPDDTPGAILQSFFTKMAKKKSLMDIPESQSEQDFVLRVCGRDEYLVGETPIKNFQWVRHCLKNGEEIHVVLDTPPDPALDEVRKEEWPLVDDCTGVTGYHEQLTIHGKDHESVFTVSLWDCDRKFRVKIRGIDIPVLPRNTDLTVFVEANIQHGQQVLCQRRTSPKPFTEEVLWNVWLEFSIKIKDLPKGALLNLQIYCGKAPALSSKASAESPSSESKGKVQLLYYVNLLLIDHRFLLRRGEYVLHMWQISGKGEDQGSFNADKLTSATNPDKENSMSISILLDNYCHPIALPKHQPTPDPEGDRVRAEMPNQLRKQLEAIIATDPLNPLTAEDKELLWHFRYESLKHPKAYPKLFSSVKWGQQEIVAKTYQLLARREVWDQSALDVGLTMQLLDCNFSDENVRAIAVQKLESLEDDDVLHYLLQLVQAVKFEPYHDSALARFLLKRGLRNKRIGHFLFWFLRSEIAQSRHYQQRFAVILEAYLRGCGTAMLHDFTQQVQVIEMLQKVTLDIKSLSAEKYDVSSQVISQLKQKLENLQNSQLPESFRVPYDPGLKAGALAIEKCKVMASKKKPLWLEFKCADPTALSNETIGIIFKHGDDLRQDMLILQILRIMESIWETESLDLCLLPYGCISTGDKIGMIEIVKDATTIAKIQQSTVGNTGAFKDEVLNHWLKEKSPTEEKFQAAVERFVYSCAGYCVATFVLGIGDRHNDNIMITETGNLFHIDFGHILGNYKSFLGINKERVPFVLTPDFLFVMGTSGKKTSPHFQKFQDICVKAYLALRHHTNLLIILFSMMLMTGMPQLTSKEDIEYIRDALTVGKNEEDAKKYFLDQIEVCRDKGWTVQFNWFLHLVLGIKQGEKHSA
Sequence of Peripheral plasma membrane protein CASK (Homo sapiens) (O14936 whole entry, the tested form may be a part): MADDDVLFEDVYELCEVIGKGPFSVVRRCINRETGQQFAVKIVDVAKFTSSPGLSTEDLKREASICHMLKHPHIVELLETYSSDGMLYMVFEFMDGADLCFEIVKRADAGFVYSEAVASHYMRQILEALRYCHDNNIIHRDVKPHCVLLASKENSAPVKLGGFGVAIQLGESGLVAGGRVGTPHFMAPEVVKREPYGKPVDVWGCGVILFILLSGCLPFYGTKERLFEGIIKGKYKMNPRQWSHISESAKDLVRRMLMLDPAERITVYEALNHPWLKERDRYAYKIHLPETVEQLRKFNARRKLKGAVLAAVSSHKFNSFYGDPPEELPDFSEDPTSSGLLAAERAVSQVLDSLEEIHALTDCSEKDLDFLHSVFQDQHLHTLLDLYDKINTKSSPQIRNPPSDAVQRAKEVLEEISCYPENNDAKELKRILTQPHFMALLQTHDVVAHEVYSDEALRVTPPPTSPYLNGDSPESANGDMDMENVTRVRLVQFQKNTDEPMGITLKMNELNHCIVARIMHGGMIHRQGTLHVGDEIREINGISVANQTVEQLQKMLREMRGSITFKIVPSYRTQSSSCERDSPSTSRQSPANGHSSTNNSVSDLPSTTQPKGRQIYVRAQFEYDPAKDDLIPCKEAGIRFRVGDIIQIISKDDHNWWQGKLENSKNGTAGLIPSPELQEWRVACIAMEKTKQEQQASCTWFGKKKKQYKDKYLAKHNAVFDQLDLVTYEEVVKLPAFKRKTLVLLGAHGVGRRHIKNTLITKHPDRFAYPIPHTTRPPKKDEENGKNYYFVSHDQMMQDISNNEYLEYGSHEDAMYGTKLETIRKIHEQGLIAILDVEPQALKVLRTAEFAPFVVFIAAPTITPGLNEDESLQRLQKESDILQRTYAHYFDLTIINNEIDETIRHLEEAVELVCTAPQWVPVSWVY
Sequence of Serine/threonine-protein kinase Nek7 (Homo sapiens) (Q8TDX7 whole entry, looked up, the tested form may be a part, canonical isoform): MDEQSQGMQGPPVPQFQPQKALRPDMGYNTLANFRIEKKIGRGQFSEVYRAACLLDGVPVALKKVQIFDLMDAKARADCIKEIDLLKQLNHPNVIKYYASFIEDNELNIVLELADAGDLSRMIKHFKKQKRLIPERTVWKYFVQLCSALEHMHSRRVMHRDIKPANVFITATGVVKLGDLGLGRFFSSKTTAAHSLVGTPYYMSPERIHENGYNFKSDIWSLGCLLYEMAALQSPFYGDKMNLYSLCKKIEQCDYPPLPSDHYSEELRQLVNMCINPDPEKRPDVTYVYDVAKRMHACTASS
Sequence of Cyclin-dependent kinase 17 (Homo sapiens) (Q00537 whole entry, looked up, the tested form may be a part): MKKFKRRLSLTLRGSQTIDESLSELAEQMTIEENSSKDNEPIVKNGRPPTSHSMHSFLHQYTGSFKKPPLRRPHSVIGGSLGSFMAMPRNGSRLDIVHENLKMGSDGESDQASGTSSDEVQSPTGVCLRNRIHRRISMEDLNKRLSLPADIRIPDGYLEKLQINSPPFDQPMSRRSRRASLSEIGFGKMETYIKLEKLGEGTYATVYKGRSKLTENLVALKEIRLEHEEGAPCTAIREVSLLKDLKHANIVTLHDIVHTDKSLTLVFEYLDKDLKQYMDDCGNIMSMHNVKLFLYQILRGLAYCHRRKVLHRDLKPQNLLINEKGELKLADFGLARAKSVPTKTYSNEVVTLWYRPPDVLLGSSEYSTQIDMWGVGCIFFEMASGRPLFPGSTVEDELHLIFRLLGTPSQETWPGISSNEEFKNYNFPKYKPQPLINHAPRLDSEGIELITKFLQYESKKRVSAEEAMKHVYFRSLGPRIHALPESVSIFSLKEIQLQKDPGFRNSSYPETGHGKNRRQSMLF
Sequence of Casein kinase I isoform gamma-1 (Homo sapiens) (Q9HCP0 whole entry, looked up, the tested form may be a part, canonical isoform): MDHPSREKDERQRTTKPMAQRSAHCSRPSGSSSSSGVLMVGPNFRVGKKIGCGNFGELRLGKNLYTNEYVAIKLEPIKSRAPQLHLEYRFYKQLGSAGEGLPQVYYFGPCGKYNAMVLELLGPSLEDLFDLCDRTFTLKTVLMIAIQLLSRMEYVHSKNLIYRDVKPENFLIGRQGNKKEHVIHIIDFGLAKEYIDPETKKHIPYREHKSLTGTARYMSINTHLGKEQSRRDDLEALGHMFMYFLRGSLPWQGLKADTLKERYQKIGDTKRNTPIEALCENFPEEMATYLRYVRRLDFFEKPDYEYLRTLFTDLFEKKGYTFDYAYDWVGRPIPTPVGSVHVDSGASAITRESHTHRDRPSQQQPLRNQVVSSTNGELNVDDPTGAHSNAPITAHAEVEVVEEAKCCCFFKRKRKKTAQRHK
Sequence of Cyclin-dependent kinase-like 1 (Homo sapiens) (Q00532 whole entry, the tested form may be a part): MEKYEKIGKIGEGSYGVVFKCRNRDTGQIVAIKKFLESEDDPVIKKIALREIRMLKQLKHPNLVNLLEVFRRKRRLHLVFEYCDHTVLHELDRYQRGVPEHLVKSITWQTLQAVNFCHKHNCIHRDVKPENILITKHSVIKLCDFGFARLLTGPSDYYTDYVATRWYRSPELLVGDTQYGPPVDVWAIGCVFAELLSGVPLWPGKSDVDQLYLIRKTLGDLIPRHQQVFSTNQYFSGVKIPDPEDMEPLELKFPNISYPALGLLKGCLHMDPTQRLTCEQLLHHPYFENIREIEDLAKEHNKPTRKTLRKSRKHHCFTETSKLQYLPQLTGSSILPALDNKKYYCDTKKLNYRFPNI

Compound `CC1(C)[C@H](Nc2c(C(N)=O)cnn3cc(-c4ccccc4)cc23)CC[C@]1(C)N` has an IC50 [1] of 9 nM, an Activity [2] of 19% and an Activity [3] of 19%. It also gave an Activity [4] of 56%, an Activity [5] of 63% and an Activity [6] of 66%. The Activity [7] was 70%, the Activity [8] was 80% and the Activity [9] was 80%. For the same compound, the Activity [10] was 92%, the Activity [11] was 92% and the Activity [12] was 94%. It also gave an Activity [13] of 95%, an Activity [14] of 97% and an Activity [15] of 98%. It also gave an Activity [16] of 98%, an Activity [17] of 100% and an Activity [18] of 100%. For the same compound, the Activity [19] was 100%, the Activity [20] was 100% and the Activity [21] was 100%. For the same compound, the Activity [22] was 100%, the Activity [23] was 100% and the Activity [24] was 100%. It also gave an Activity [25] of 100%.
For `COc1ccc(-c2cc3c(N[C@@H]4CC[C@](C)(N)C4(C)C)c(C(N)=O)cnn3c2)cn1`, the IC50 [1] was 15 nM, the Activity [2] was 35% and the Activity [3] was 64%. It also gave an Activity [4] of 100%, an Activity [5] of 96% and an Activity [6] of 100%. The Activity [7] was 85%, the Activity [8] was 79% and the Activity [9] was 100%. For the same compound, the Activity [10] was 100%, the Activity [11] was 100% and the Activity [12] was 92%. It also gave an Activity [13] of 100%, an Activity [14] of 100% and an Activity [15] of 95%. The Activity [16] was 100%, the Activity [17] was 100% and the Activity [18] was 92%. For the same compound, the Activity [19] was 100%, the Activity [20] was 100% and the Activity [21] was 100%. It also gave an Activity [22] of 100%, an Activity [23] of 100% and an Activity [24] of 100%. It also gave an Activity [25] of 96%.
